The values that follow come from patent US8901118B2, “Compounds and methods for kinase modulation, and indications therefor” (Plexxikon Inc., priority 2010, dated 2014).

One assay relates to BCR-FMS BaF3 cells. Kind of assay: Splenomegaly mouse model, BCR-FMS BaF3 cells. As to conditions: dosed once per day at 10 mg per kg. The class given is in vivo. As to the method:
BaF3 cells are engineered with any of BCR-FMS, BCR-TRK1 or BCR-TRK2 to assess in vivo inhibitory effects of Fms, TrkA or TrkB inhibition, respectively. BaF3 cells are maintained in growth media (RPMI containing 10% FBS, 1% PenStrep, 1% NEAA, and 1% L-Glutamine, supplemented with 5% murine IL-3 and 1 mg/mL G418). Four days prior to start, 2×10^6 cells are inoculated into a T150 vented flask using the growth media and incubated at 37° C. in 5% CO2 for three days. One day prior to start, cells are collected by centrifugation and are suspended in growth media without IL-3. On the day of cell implant, the cells are collected by centrifugation, rinsed 3×20 mL with RPMI, then are suspended in 5.4 mL of media and counted, then adjusted with additional RPMI as needed to give 5×10^7 cells/mL. On day 1, female nu/nu mice at 5-6 weeks of age are injected intravenously with BaF3 cells injected injecting 0.1 mL (5×10^6) cells in the tail vein (mice without cell injected are included as control group). Compound stocks in dimethylsulfoxide are stored at room temperature protected from light. Stocks are diluted prior to dosing, diluting 22 μL of compound stock into 858 μL of diluent (or 50 μL into 1950 μL) to provide vehicle of 1.0% Polysorbate 80, 0.5% hydroxypropyl methyl cellulose, with final dimethylsulfoxide at 2.5% in all dosing suspensions and vehicle control. Dosing suspension is prepared prior to use, mixing by inversion and sonication in a water bath to make a uniform suspension. On days 10-18, mice are treated with vehicle only or the desired level of compound in vehicle, ˜0.2 mL per 25 gm mouse, once a day by oral gavage, or in some instances, twice per day. On day 18, mice are administered a final dose and two hours later a plasma sample is taken. At four hours following the final dose, mice are sacrificed, an additional plasma sample is collected and mouse spleens are removed and weighed. The average spleen weight of vehicle control group mice is compared to the average spleen weight of the test compound mice. Percent spleen growth inhibition is calculated as 100×[(spleen weight vehicle control-spleen weight test compound)/spleen weight vehicle control]. In some instances, the compounds were not tested in all of the assays as indicated by NA in the table below.

Another assay deals with TrkC kinase (Homo sapiens, UniProt Q16288). The assay is described as follows: TrkC kinase biochemical activity assay (similar to TrkA assay). As to conditions: read-out: Biochemical Inhibition IC50 TrkC. As to the method:
In one assay the biochemical activity IC50 values are determined with respect to inhibition of TrkA kinase activity, where inhibition of phosphorylation of a peptide substrate is measured as a function of compound concentration. Compounds to be tested, dissolved in DMSO (1 μL), are added to a white 384-well plate (Costar #3705). Working stocks of TrkA kinase (UBI), biotin-(E4Y)10 substrate (Upstate Biotech, Cat#12-440), and ATP (Sigma, Cat#A-3377) are prepared in 25 mM Hepes pH 7.5, 10 mM MnCl2, 1 mM DTT, 0.01% BSA, and 0.01% Tween-20. All components are added to the 384-well plate for a final concentration of 1 ng/well TrkA, 30 nM biotin-(E4Y)10 and 100 μM ATP in a volume of 20 μL. Each sample is at 5% DMSO. The plate is shaken for 1 minute at 1200 rpm, spun for 1 minute at 1000 rpm, then incubated for 40 minutes at room temperature. Just before use, working stocks of donor and acceptor beads from the AlphaScreen PY20 Detection Kit (PerkinElmer, Cat#676601M) are prepared in 25 mM Hepes pH 7.5, 100 mM EDTA. 0.01% BSA. Donor Beads solution (Streptavidin beads) is added (5 μL) to each well to final bead concentration of 10 μg/mL. The plate is incubated at room temperature for 20 minutes. Acceptor Beads solution (PY20 coated beads) are then added to each well (5 μL) to a final concentration of bead at 10 μg/mL. The plates are incubated at room temperature for 60 minutes. Fluorescence signal is recorded on the Envision reader. Phosphorylated substrate results in binding of the PY20 antibody and association of the donor and acceptor beads such that signal correlates with kinase activity. The signal vs. compound concentration is used to determine the IC50. Similar assays are used for TrkB and Trk C kinase.

Sequence of TrkC kinase (Q16288 32-839): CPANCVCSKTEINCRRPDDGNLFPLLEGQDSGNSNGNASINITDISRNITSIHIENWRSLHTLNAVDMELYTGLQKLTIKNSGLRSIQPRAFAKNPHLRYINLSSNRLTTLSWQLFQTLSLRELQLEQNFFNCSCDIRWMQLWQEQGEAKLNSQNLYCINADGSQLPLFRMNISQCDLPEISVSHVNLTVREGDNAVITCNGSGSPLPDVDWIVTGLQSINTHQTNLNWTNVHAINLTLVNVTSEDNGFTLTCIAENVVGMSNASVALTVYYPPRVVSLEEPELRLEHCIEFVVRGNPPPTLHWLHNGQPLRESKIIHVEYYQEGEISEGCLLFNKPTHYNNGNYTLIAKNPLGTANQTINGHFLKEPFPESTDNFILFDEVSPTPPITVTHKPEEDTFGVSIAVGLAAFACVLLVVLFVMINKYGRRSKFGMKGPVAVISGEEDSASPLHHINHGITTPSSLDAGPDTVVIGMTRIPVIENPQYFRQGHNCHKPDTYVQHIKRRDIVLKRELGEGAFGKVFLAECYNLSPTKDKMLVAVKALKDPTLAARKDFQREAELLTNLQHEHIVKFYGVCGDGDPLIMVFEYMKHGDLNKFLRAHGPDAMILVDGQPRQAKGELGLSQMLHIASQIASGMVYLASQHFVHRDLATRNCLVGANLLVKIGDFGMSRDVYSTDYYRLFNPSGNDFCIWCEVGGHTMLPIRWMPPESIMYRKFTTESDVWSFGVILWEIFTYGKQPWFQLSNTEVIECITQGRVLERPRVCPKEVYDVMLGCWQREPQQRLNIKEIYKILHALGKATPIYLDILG

As to `CCOc1ncnc2[nH]cc(Cc3ccc(Nc4cnn(CC)c4)nc3F)c12` [Compound P-4012, [5-(4-Ethoxy-7H-pyrrolo[2,3-d]pyrimidin-5-ylmethyl)-6-fluoro-pyridin-2-yl]-(1-ethyl-1H-pyrazol-4-yl)-amine], the “% spleen growth inhibition, Fms” value with BCR-FMS BaF3 cells is listed as 24%.
As for `COc1ccc(Nc2ncc(Cc3c[nH]c4ncc(C)cc34)cn2)cc1` [Compound P-3021, (4-Methoxy-phenyl)-[5-(5-methyl-1H-pyrrolo[2,3-b]pyridin-3-ylmethyl)-pyrimidin-2-yl]-amine], the half-maximal inhibitory concentration (IC50) on TrkC kinase was less than 1000 nM.
On the same count and under the same terms, the figure for `Cc1cnc2[nH]cc(Cc3cnc(Nc4ccc(C(O)(C(F)(F)F)C(F)(F)F)cc4)nc3)c2c1` [Compound P-3031, 1,1,1,3,3,3-Hexafluoro-2-{4-[5-(5-methyl-1H-pyrrolo[2,3-b]pyridin-3-ylmethyl)-pyrimidin-2-ylamino]-phenyl}-propan-2-ol] is less than 100 nM.
As to `Cc1cnc2[nH]cc(Cc3cnc(Nc4ccc(S(C)(=O)=O)cc4)nc3)c2c1` [Compound P-3034, (4-Methanesulfonyl-phenyl)-[5-(5-methyl-1H-pyrrolo[2,3-b]pyridin-3-ylmethyl)-pyrimidin-2-yl]-amine], the IC50 on TrkC kinase is less than 1000 nM.
Still for that read-out and setting: the same measure for `CCn1ccc(Nc2ncc(Cc3c[nH]c4ncc(C)cc34)cn2)n1` [Compound P-3035, (1-Ethyl-1H-pyrazol-3-yl)-[5-(5-methyl-1H-pyrrolo[2,3-b]pyridin-3-ylmethyl)-pyrimidin-2-yl]-amine]: less than 1000 nM.
As for `CCOc1ccc(Nc2ccc(C(=O)c3c[nH]c4ncc(C)cc34)c(F)n2)cn1` [Compound P-3045, [6-(6-ethoxy-pyridin-3-ylamino)-2-fluoro-pyridin-3-yl]-(5-methyl-1H-pyrrolo[2,3-b]pyridin-3-yl)-methanone], in the assay with BCR-FMS BaF3 cells, the “% spleen growth inhibition, Fms” value worked out at 11%.
Same read-out and setting: the figure for `CCOc1ccc(Nc2ccc(Cc3c[nH]c4ncnc(C5CC5)c34)c(F)n2)cn1` [Compound P-4026, [5-(4-Cyclopropyl-7H-pyrrolo[2,3-d]pyrimidin-5-ylmethyl)-6-fluoro-pyridin-2-yl]-(6-ethoxy-pyridin-3-yl)-amine] is 41%.
Take `CSc1ccc(Nc2ncc(Cc3c[nH]c4ncc(C)cc34)cn2)cc1` [Compound P-3033, [5-(5-Methyl-1H-pyrrolo[2,3-b]pyridin-3-ylmethyl)-pyrimidin-2-yl]-(4-methylsulfanyl-phenyl)-amine]: at TrkC kinase, the IC50 is less than 100 nM.
Still for that read-out and setting: the same measure for `Cc1cnc2[nH]cc(Cc3cnc(Nc4cc(C(C)(C)C)n[nH]4)nc3)c2c1` [Compound P-3029, (5-tert-Butyl-2H-pyrazol-3-yl)-[5-(5-methyl-1H-pyrrolo[2,3-b]pyridin-3-ylmethyl)-pyrimidin-2-yl]-amine]: less than 1000 nM; for `COc1ccc(Nc2ncc(Cc3c[nH]c4ncc(C)cc34)cn2)cn1` [Compound P-3020, (6-Methoxy-pyridin-3-yl)-[5-(5-methyl-1H-pyrrolo[2,3-b]pyridin-3-ylmethyl)-pyrimidin-2-yl]-amine]: less than 1000 nM.
`CCOc1ccc(Nc2ccc(C(=O)c3c[nH]c4ncnc(C5CC5)c34)c(F)n2)cn1` [Compound P-4027, (4-Cyclopropyl-7H-pyrrolo[2,3-d]pyrimidin-5-yl)-[6-(6-ethoxy-pyridin-3-ylamino)-2-fluoro-pyridin-3-yl]-methanone]: the “% spleen growth inhibition, Fms” value in the assay on BCR-FMS BaF3 cells is reported as −1.4%.
For the compound `CCn1cc(Nc2ncc(Cc3c[nH]c4ncc(C)cc34)cn2)cn1` [Compound P-3036, (1-Ethyl-1H-pyrazol-4-yl)-[5-(5-methyl-1H-pyrrolo[2,3-b]pyridin-3-ylmethyl)-pyrimidin-2-yl]-amine], the IC50 on TrkC kinase is less than 1000 nM.
The same measure, in the same setting: the same measure for `CCOc1ccc(Nc2ncc(Cc3c[nH]c4ncc(C)cc34)cn2)cc1` [Compound P-3026, (4-Ethoxy-phenyl)-[5-(5-methyl-1H-pyrrolo[2,3-b]pyridin-3-ylmethyl)-pyrimidin-2-yl]-amine]: less than 100 nM; for `COc1cc(Nc2ncc(Cc3c[nH]c4ncc(C)cc34)cn2)ccc1F` [Compound P-3022, (4-Fluoro-3-methoxy-phenyl)-[5-(5-methyl-1H-pyrrolo[2,3-b]pyridin-3-ylmethyl)-pyrimidin-2-yl]-amine]: less than 1000 nM.
For `FC1(F)CCC(Nc2ncc(Cc3c[nH]c4ncc(Cl)cc34)cn2)CC1` [Compound P-3004], the “% spleen growth inhibition, Fms” value in the assay on BCR-FMS BaF3 cells is reported as 43%.
Consider `Cc1cnc2[nH]cc(Cc3cnc(Nc4cc(-c5ccc(F)cc5)n[nH]4)nc3)c2c1` [Compound P-3028, [5-(4-Fluoro-phenyl)-2H-pyrazol-3-yl]-[5-(5-methyl-1H-pyrrolo[2,3-b]pyridin-3-ylmethyl)-pyrimidin-2-yl]-amine], for which the IC50 at TrkC kinase is less than 100 nM.
In the case of `Cc1ccc(Nc2ccc(C(=O)c3c[nH]c4ncnc(C5CC5)c34)c(F)n2)cn1` [Compound P-4031, (4-Cyclopropyl-7H-pyrrolo[2,3-d]pyrimidin-5-yl)-[2-fluoro-6-(6-methyl-pyridin-3-ylamino)-pyridin-3-yl]-methanone], in the assay with BCR-FMS BaF3 cells, the “% spleen growth inhibition, Fms” value is reported as 29%.
Turning to `Cc1cnc2[nH]cc(Cc3cnc(Nc4ccc(C(C)(C)C)cc4)nc3)c2c1` [Compound P-3030, (4-tert-Butyl-phenyl)-[5-(5-methyl-1H-pyrrolo[2,3-b]pyridin-3-ylmethyl)-pyrimidin-2-yl]-amine amine], the IC50 at TrkC kinase was less than 10 nM.
As for `CCc1ccc(Nc2ncc(Cc3c[nH]c4ncc(C)cc34)cn2)cc1` [Compound P-3025, (4-Ethyl-phenyl)-[5-(5-methyl-1H-pyrrolo[2,3-b]pyridin-3-ylmethyl)-pyrimidin-2-yl]-amine], the IC50 at TrkC kinase is less than 10 nM.
For `Cc1cnc2[nH]cc(Cc3cnc(Nc4cc(C5CC5)n[nH]4)nc3)c2c1` [Compound P-3032, (5-Cyclopropyl-2H-pyrazol-3-yl)-[5-(5-methyl-1H-pyrrolo[2,3-b]pyridin-3-ylmethyl)-pyrimidin-2-yl]-amine], at TrkC kinase, the IC50 is more than 1000 nM.
`Fc1nc(NC2CCC(F)(F)CC2)ccc1Cc1c[nH]c2ncnc(NCC(F)(F)F)c12` [Compound P-4128, 5-[[6-[(4,4-difluorocyclohexyl)amino]-2-fluoro-3-pyridyl]methyl]-N-(2,2,2-trifluoroethyl)-7H-pyrrolo[2,3-d]pyrimidin-4-amine]: in the assay on BCR-FMS BaF3 cells, the “% spleen growth inhibition, Fms” value came out at 15%.
The same measure, in the same setting: the same measure for `Fc1nc(Nc2ccc(C3CC3)nc2)ccc1Cc1c[nH]c2ncnc(NCC(F)(F)F)c12` [Compound P-4130, 5-[[6-[(6-cyclopropyl-3-pyridyl)amino]-2-fluoro-3-pyridyl]methyl]-N-(2,2,2-trifluoroethyl)-7H-pyrrolo[2,3-d]pyrimidin-4-amine]: 70%; for `CCc1ccc(Nc2ccc(C(=O)c3c[nH]c4ncnc(C5CC5)c34)c(F)n2)cn1` [Compound P-4029, (4-Cyclopropyl-7H-pyrrolo[2,3-d]pyrimidin-5-yl)-[6-(6-ethyl-pyridin-3-ylamino)-2-fluoro-pyridin-3-yl]-methanone]: 66%.
`CCCOc1ccc(Nc2ncc(Cc3c[nH]c4ncc(C)cc34)cn2)cc1` [Compound P-3024, [5-(5-Methyl-1H-pyrrolo[2,3-b]pyridin-3-ylmethyl)-pyrimidin-2-yl]-(4-propoxy-phenyl)-amine]: the IC50 at TrkC kinase is more than 1000 nM.
The same measure, in the same setting: the same measure for `COc1ccc(Nc2ccc(Cc3c[nH]c4ncnc(OC)c34)c(F)n2)cn1` [Compound P-4001, [6-Fluoro-5-(4-methoxy-7H-pyrrolo[2,3-d]pyrimidin-5-ylmethyl)-pyridin-2-yl]-(6-methoxy-pyridin-3-yl)-amine]: less than 10 nM.

The term IC50 denotes the midpoint of a concentration-inhibition curve.
